From ChEMBL document CHEMBL1154288, “The discovery and unique pharmacological profile of RO4938581 and RO4882224 as potent and selective GABAA alpha5 inverse agonists for the treatment of cognitive dysfunction” (Bioorg Med Chem Lett, 2009) come the findings set out here.

By Ki is commonly meant the dissociation constant of the complex between target and ligand, obtained from inhibition or displacement.

Test [1] addresses T1, GABA-A receptor; alpha-2/beta-3/gamma-2 (Homo sapiens, UniProt P18507+P28472+P47869).
T1 sequence (P18507 whole entry): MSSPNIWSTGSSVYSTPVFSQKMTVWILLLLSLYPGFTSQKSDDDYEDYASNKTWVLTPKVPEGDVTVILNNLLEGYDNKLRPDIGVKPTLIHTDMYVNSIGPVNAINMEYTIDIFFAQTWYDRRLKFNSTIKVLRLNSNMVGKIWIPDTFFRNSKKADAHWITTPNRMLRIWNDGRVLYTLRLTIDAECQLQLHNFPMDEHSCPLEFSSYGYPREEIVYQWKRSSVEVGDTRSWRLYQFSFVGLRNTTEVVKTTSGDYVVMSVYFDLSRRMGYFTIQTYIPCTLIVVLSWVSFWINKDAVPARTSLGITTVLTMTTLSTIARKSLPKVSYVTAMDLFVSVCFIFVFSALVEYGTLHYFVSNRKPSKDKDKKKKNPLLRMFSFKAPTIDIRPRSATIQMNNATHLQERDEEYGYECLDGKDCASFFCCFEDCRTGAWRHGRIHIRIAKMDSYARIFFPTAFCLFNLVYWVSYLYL
T1 sequence (P28472 whole entry): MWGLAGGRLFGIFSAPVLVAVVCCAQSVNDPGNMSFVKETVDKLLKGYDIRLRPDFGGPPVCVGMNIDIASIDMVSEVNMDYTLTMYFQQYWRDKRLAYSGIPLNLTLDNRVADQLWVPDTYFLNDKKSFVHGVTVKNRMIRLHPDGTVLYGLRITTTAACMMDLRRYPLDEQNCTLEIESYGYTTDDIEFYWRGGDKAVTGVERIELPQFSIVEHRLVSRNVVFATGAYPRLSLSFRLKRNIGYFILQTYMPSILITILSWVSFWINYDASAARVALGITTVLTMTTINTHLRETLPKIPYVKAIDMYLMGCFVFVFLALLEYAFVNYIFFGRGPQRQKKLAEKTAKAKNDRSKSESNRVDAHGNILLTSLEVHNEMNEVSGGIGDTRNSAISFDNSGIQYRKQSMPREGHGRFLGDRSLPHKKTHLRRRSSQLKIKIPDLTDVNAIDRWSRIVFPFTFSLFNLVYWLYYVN
T1 sequence (P47869 whole entry): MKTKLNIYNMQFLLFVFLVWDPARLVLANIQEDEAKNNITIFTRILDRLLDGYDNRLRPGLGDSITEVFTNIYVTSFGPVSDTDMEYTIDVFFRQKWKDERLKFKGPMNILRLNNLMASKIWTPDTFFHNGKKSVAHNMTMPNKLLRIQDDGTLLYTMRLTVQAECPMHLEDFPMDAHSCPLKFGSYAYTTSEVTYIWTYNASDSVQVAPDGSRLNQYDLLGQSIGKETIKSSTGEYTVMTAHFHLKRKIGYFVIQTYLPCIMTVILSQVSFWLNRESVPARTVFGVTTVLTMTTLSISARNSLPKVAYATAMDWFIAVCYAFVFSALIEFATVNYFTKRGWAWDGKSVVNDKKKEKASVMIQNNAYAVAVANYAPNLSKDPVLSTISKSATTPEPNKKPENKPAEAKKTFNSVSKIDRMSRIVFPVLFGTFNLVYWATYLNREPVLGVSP
Description: Displacement of [3H]Flumazenil from cloned human GABA alpha-2-beta-3-gamma-2 receptor expressed in HEK293 cells. Type of test: cell-based. In general terms: In a radioligand displacement assay an active substance lowers the binding of a labelled ligand.

For test [2], the target named is T2, GABA-A receptor; alpha-3/beta-3/gamma-2 (Homo sapiens, UniProt P18507+P28472+P34903).
T2 sequence (P18507 whole entry): T1 sequence (P18507 whole entry)
T2 sequence (P28472 whole entry): T1 sequence (P28472 whole entry)
T2 sequence (P34903 whole entry): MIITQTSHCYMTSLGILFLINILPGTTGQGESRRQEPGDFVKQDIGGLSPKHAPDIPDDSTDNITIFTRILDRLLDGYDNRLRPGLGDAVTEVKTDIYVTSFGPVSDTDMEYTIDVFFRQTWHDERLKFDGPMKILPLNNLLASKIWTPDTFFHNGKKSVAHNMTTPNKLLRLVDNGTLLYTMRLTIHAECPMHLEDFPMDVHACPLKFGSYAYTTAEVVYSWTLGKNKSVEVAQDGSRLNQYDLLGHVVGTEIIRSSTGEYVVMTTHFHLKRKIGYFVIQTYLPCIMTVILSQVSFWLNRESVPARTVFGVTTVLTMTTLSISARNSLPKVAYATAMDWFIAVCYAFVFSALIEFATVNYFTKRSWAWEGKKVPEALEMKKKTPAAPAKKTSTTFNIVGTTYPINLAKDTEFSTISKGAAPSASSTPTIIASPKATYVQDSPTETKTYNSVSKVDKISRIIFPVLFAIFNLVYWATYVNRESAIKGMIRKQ
The test can be described thus: Displacement of [3H]Flumazenil from cloned human GABA alpha-3-beta-3-gamma-2 receptor expressed in HEK293 cells. The test is classed as cell-based.

Test [3] has as its system Rattus norvegicus. The test can be described thus: Behavioral effect in Lister hooded rat assessed as reversal of scopolamine-induced working memory impairment at 0.3 to 1 mg/kg, po by delayed match to position task method. Type of test: functional, organism-based.
Test [4] has as its system Rattus norvegicus. The test can be described thus: Behavioral effect in Lister hooded rat assessed as inhibition of diazepam-induced spartial learning impairment at 1 to 10 mg/kg, po by delayed match to position task method. The test is classed as functional, organism-based.
A further test deals with Cynomolgus monkey. The test can be described thus: Behavioral effect in cynomolgus monkey assessed as improved executive function at 3 to10 mg/kg, po by object retrieval task method. Type of test: functional, organism-based. Particulars: Macaca fascicularis.
The species entered for test [5] is Rattus norvegicus. Description: Anxiogenic activity in Lister hooded rat by elevated plus maze test. Type of test: functional, organism-based.
The next test is filed under the species Mus musculus. The test can be described thus: Anticonvulsive activity in mouse audiogenic seizure model. The test is classed as functional, organism-based.
The test system of test [6] is Rattus norvegicus. The test can be described thus: Behavioral effect in Lister hooded rat assessed as reversal of scopolamine-induced working memory impairment at 0.1 mg/kg, po after 24 seconds by delayed match to position task method. Further details: dose 0.1 mg/kg. The test is classed as functional, organism-based.
The species entered for test [7] is Rattus norvegicus. Description: Anxiogenic activity in Lister hooded rat by social approach avoidance test. Type of test: functional, organism-based.
Another test has as its system HEK293. The test can be described thus: Selectivity ratio of Ki for cloned human GABA alpha-2-beta-3-gamma-2 receptor expressed in HEK293 cells to Ki for cloned human GABA alpha-5-beta-3-gamma-2 receptor expressed in HEK293 cells. Type of test: cell-based.
For test [8], the target named is GABA-A receptor; alpha-5/beta-3/gamma-2 (Homo sapiens) (UniProt P18507+P28472+P31644). The test can be described thus: Inverse agonist activity at human GABA alpha-5-beta-3-gamma-2 receptor expressed in Xenopus laevis oocyts by electrophysiology assay relative to GABA. The test is classed as functional.
Test [9] concerns Rattus norvegicus. The test can be described thus: Behavioral effect in Lister hooded rat assessed as reversal of scopolamine-induced working memory impairment at 1 mg/kg, po by delayed match to position task method. The test is classed as functional, organism-based. On the set-up: dose 1 mg/kg.
For test [10], the system named is Rattus norvegicus. The test can be described thus: Behavioral effect in Lister hooded rat assessed as reversal of scopolamine-induced working memory impairment at 1 mg/kg, po after 16 seconds by delayed match to position task method. Type of test: functional, organism-based. On the set-up: dose 1 mg/kg.
The test system of test [11] is Rattus norvegicus. Description: Behavioral effect in Lister hooded rat assessed as reversal of scopolamine-induced working memory impairment at 1 mg/kg, po after 24 seconds by delayed match to position task method. Further details: dose 1 mg/kg. Type of test: functional, organism-based.

The structures appear in SMILES notation. The source made the active and inactive calls. No cut-off for these calls is given here.

In the case of `FC(F)c1ncn2c1Cn1ncnc1-c1cc(Br)ccc1-2`, the inhibition constant Ki in test [1] is 185 nM; in test [2] it was 80 nM. Besides, the outcome with Rattus norvegicus [3], with Rattus norvegicus [4], in the test with Cynomolgus monkey and in the test with Rattus norvegicus [6] was Active. The result in the test listed under Rattus norvegicus [5], in the test listed under Mus musculus and in the test listed under Rattus norvegicus [7] was inactive.

Regarding `Cc1ncn2c1Cn1ncnc1-c1cc(Cl)ccc1-2`, the Ratio Ki in the test with HEK293 stood at 72. The Ki in [1] worked out at 219 nM; in test [2], 265 nM.

Consider `Clc1ncn2c1Cn1ncnc1-c1cc(Br)ccc1-2`, for which the Ratio Ki in the test with HEK293 came out at 18. Moreover, the Ki in test [1] worked out at 24 nM; in [2] it was 8.8 nM.

As for `Clc1ccc2c(c1)-c1ncnn1Cc1c(Cl)ncn1-2`, the Ratio Ki in the test on HEK293 came out at 12. In addition, the result (in test [8]; in the test with Rattus norvegicus [10]; with Rattus norvegicus [11]) was Active. Further, the Ki in [1] was found to be 24 nM; in [2] it was 14 nM. Besides, in the test on Rattus norvegicus [9], the outcome was inactive.
